Test results reported in patent publication US10172355B2, “Safened herbicidal compositions including 4-amino-3-chloro-5-fluoro-6-(4-chloro-2-fluoro-3-methoxyphenyl)pyridine-2-carboxylic acid or a derivative thereof for use in rice” (Dow AgroSciences LLC, priority 2012, dated 2019).

System: ORYSA=Orysa sativa, Rice
Assay: In-water applied herbicides and safeners in transplanted paddy rice, visual injury
Assay type: in vivo
Settings: for Mean Visual Injury (%) - 21 DAA ORYSA - ‘M202’ / Mean Visual Injury (%) - 21 DAA ORYSA - ‘Wells’: in-water applied
Description: Weed seeds or nutlets of the desired test plant species were planted in puddled soil (mud) prepared by mixing a shredded, non-sterilized mineral soil (50.5 percent silt, 25.5 percent clay, and 24 percent sand, with a pH of about 7.6 and an organic matter content of about 2.9 percent) and water at a 1:1 volumetric ratio. The prepared mud was dispensed in 365 mL aliquots into 16-ounce (oz.) non-perforated plastic pots with a surface area of 86.59 square centimeters (cm^2) leaving a headspace of 3 centimeters (cm) in each pot. Rice seeds were planted in Sun Gro MetroMix® 306 planting mixture, which typically has a pH of 6.0 to 6.8 and an organic matter content of about 30 percent, in plastic plug trays. Seedlings at the second or third leaf stage of growth were transplanted into 860 mL of mud contained in 32-oz. non-perforated plastic pots with a surface area of 86.59 cm^2 4 days prior to herbicide application. The paddy was created by filling the headspace of the pots with 2.5 to 3 cm of water. When required to ensure good germination and healthy plants, a fungicide treatment and/or other chemical or physical treatment was applied. The plants were grown for 4-22 days in a greenhouse with an approximate 14 h photoperiod which was maintained at about 29′C during the day and about 26° C. during the night. Nutrients were added as Osmocote® (17:6:10, N:P:K+minor nutrients) at 2 g per 16-oz. pot and 4 g per 32-oz. pot. Water was added on a regular basis to maintain the paddy flood, and supplemental lighting was provided with overhead metal halide 1000-Watt lamps as necessary. The plants were employed for testing when they reached the second or third true leaf stage.
Treatments consisted of the acid or esters of 4-amino-3-chloro-5-fluoro-6-(4-chloro-2-fluoro-3-methoxy-phenyl)pyridine-2-carboxylic acid (compound A) and various safeners alone and in combination. Forms of compound A were applied on an acid equivalent basis. Safener components were applied on an active ingredient or acid equivalent basis depending on the compound.
Treatment requirements for each compound or herbicidal component were calculated based upon the rates being tested, the concentration of active ingredient or acid equivalent in the formulation, an application volume of 2 mL per component per pot, and an application area of 86.59 cm^2 per pot.
For formulated compounds, a measured amount was placed in an individual 100 or 200 mL glass vial and was dissolved in a volume of 1.25% (v/v) Agri-Dex® crop oil concentrate to obtain application solutions.
For technical grade compounds, a weighed amount can be placed in an individual 100 to 200 mL glass vial and dissolved in a volume of acetone to obtain concentrated stock solutions. […] The concentrated stock solutions obtained can be diluted with an equivalent volume of an aqueous mixture containing 2.5% (v/v) crop oil concentrate so that the final application solutions contain 1.25% (v/v) crop oil concentrate.
Applications were made by injecting with a pipetter appropriate amounts of the application solutions, individually and sequentially, into the aqueous layer of the paddy. Control plants were treated in the same manner with the solvent blank. Applications were made so that all treated plant material received the same concentrations of acetone and crop oil concentrate.
The treated plants and control plants were placed in a greenhouse as described above and water was added as needed to maintain a paddy flood. After approximately 3 weeks the condition of the test plants as compared with that of the untreated plants was determined visually and scored on a scale of 0 to 100 percent where 0 corresponds to no injury or growth inhibition and 100 corresponds to complete kill.
Colby's equation was used to determine the herbicidal effects expected from the mixtures (Colby, S. R. 1967. Calculation of the synergistic and antagonistic response of herbicide combinations. Weeds 15:20-22.). […]

Row | SMILES | Mean Visual Injury (%) - 21 DAA ORYSA - ‘M202’ (8.75 g ae/ha) | Mean Visual Injury (%) - 21 DAA ORYSA - ‘Wells’ (8.75 g ae/ha) | Mean Visual Injury (%) - 21 DAA ORYSA - ‘M202’ (17.5 g ae/ha) | Mean Visual Injury (%) - 21 DAA ORYSA - ‘Wells’ (17.5 g ae/ha) | Mean Visual Injury (%) - 21 DAA ORYSA - ‘M202’ (35 g ae/ha) | Mean Visual Injury (%) - 21 DAA ORYSA - ‘Wells’ (35 g ae/ha) | Mean Visual Injury (%) - 21 DAA ORYSA - ‘M202’ (70 g ae/ha) | Mean Visual Injury (%) - 21 DAA ORYSA - ‘Wells’ (70 g ae/ha) | Mean Visual Injury (%) - 21 DAA ORYSA - ‘M202’ (140 g ae/ha) | Mean Visual Injury (%) - 21 DAA ORYSA - ‘Wells’ (140 g ae/ha) | selectivity margin (in-water, relative rice and barnyardgrass responses, over that of the acid)
1 | COc1c(Cl)ccc(-c2nc(C(=O)O)c(Cl)c(N)c2F)c1F [Acid, 4-amino-3-chloro-6-(4-chloro-2-fluoro-3-methoxyphenyl)-5-fluoropyridine-2-carboxylic acid] | 0% | 0% | 0% | 0% | 0% | 0% | 3% | 0% | 25% | 8% | 
2 | COc1c(Cl)ccc(-c2nc(C(=O)OCc3ccccc3)c(Cl)c(N)c2F)c1F [Benzyl] | 0% | 0% | 0% | 0% | 0% | 3% | 0% | 0% | 22% | 15% | improved selectivity margin
